From PubChem BioAssay (NCI)
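Briefly, cells in 96-well plates were exposed to five compound concentrations for 48 h, and endpoints were estimated by linear interpolation. TGI: total growth inhibition.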

Experiments:
Experiment in all cases: DTP human tumour cell line panel, 48 h
CCRF-CEM leukemia = system: CCRF-CEM leukemia
RXF-631 renal = system: RXF-631 renal
A498 renal = system: A498 renal
NCI-H226 lung = system: NCI-H226 lung
SW-620 colon = system: SW-620 colon
M19-MEL melanoma = system: M19-MEL melanoma
HT29 colon = system: HT29 colon
SR leukemia = system: SR leukemia
DMS 273 small cell lung = system: DMS 273 small cell lung
SF-539 CNS = system: SF-539 CNS
HCT-15 colon = system: HCT-15 colon
A549 NSCLC = system: A549 NSCLC
K-562 leukemia = system: K-562 leukemia
SN12C renal = system: SN12C renal
HL-60(TB) leukemia = system: HL-60(TB) leukemia
NCI-H460 lung = system: NCI-H460 lung
RPMI-8226 leukemia = system: RPMI-8226 leukemia
SK-OV-3 ovarian = system: SK-OV-3 ovarian
SNB-75 CNS = system: SNB-75 CNS
TK-10 renal = system: TK-10 renal
UACC-62 melanoma = system: UACC-62 melanoma
HOP-18 NSCLC = system: HOP-18 NSCLC
RXF 393 renal = system: RXF 393 renal
EKVX NSCLC = system: EKVX NSCLC
MOLT-4 leukemia = system: MOLT-4 leukemia
DLD-1 colon = system: DLD-1 colon
MALME-3M melanoma = system: MALME-3M melanoma
SNB-78 CNS = system: SNB-78 CNS
SNB-19 CNS = system: SNB-19 CNS
SF-295 CNS = system: SF-295 CNS
OVCAR-8 ovarian = system: OVCAR-8 ovarian
M14 melanoma = system: M14 melanoma
SK-MEL-28 melanoma = system: SK-MEL-28 melanoma
IGROV1 ovarian = system: IGROV1 ovarian
UO-31 renal = system: UO-31 renal
DMS 114 small cell lung = system: DMS 114 small cell lung
NCI-H23 lung = system: NCI-H23 lung
LOX IMVI melanoma = system: LOX IMVI melanoma
OVCAR-5 ovarian = system: OVCAR-5 ovarian
OVCAR-3 ovarian = system: OVCAR-3 ovarian
ACHN renal = system: ACHN renal
COLO 205 colon = system: COLO 205 colon
OVCAR-4 ovarian = system: OVCAR-4 ovarian
KM12 colon = system: KM12 colon
U251 CNS = system: U251 CNS
HCC-2998 colon = system: HCC-2998 colon
SF-268 CNS = system: SF-268 CNS
LXFL 529 NSCLC = system: LXFL 529 NSCLC
SK-MEL-5 melanoma = system: SK-MEL-5 melanoma
786-0 renal = system: 786-0 renal
UACC-257 melanoma = system: UACC-257 melanoma
CAKI-1 renal = system: CAKI-1 renal
HOP-62 NSCLC = system: HOP-62 NSCLC
SK-MEL-2 melanoma = system: SK-MEL-2 melanoma
NCI-H522 lung = system: NCI-H522 lung
HOP-92 NSCLC = system: HOP-92 NSCLC
KM20L2 colon = system: KM20L2 colon
HCT-116 colon = system: HCT-116 colon

Q: What does the source list for `O=C1C2c3[nH]c4ccccc4c3C3CCCCC3C2C(=O)N1c1ccccc1` (centres undefined)?
A: TGI (CCRF-CEM leukemia): > 100 µM; TGI (RXF-631 renal): > 100 µM; TGI (A498 renal): > 100 µM; TGI (NCI-H226 lung): > 100 µM; TGI (SW-620 colon): > 100 µM; TGI (M19-MEL melanoma): > 100 µM; TGI (HT29 colon): > 100 µM; TGI (SR leukemia): > 100 µM; TGI (DMS 273 small cell lung): > 100 µM; TGI (SF-539 CNS): > 100 µM; TGI (HCT-15 colon): > 100 µM; TGI (A549 NSCLC): > 100 µM; TGI (K-562 leukemia): > 100 µM; TGI (SN12C renal): > 100 µM; TGI (HL-60(TB) leukemia): > 100 µM; TGI (NCI-H460 lung): > 100 µM; TGI (RPMI-8226 leukemia): > 100 µM; TGI (SK-OV-3 ovarian): 52.4 µM; TGI (SNB-75 CNS): 32.9 µM; TGI (TK-10 renal): > 100 µM; TGI (UACC-62 melanoma): > 100 µM; TGI (HOP-18 NSCLC): 95.2 µM; TGI (RXF 393 renal): 62.3 µM; TGI (EKVX NSCLC): > 100 µM; TGI (MOLT-4 leukemia): > 100 µM; TGI (DLD-1 colon): > 100 µM; TGI (MALME-3M melanoma): > 100 µM; TGI (SNB-78 CNS): > 100 µM; TGI (SNB-19 CNS): > 100 µM; TGI (SF-295 CNS): > 100 µM; TGI (OVCAR-8 ovarian): > 100 µM; TGI (M14 melanoma): > 100 µM; TGI (SK-MEL-28 melanoma): > 100 µM; TGI (IGROV1 ovarian): > 100 µM; TGI (UO-31 renal): > 100 µM; TGI (DMS 114 small cell lung): > 100 µM; TGI (NCI-H23 lung): > 100 µM; TGI (LOX IMVI melanoma): > 100 µM; TGI (OVCAR-5 ovarian): > 100 µM; TGI (OVCAR-3 ovarian): > 100 µM; TGI (ACHN renal): > 100 µM; TGI (COLO 205 colon): > 100 µM; TGI (OVCAR-4 ovarian): > 100 µM; TGI (KM12 colon): > 100 µM; TGI (U251 CNS): > 100 µM; TGI (HCC-2998 colon): > 100 µM; TGI (SF-268 CNS): > 100 µM; TGI (LXFL 529 NSCLC): > 100 µM; TGI (SK-MEL-5 melanoma): > 100 µM; TGI (786-0 renal): > 100 µM

Q: Which TGI (CCRF-CEM leukemia) does the source give for `N#CC(C#N)=C1NN=C(Cl)c2ccccc21` here?
A: > 100 µM

Q: What about the TGI (RXF-631 renal) of the same compound?
A: > 100 µM

Q: What about the TGI (SW-620 colon) of the same compound?
A: > 100 µM

Q: What about the TGI (M19-MEL melanoma) of the same compound?
A: > 100 µM

Q: What about the TGI (HT29 colon) of the same compound?
A: > 100 µM

Q: What about the TGI (DMS 273 small cell lung) of the same compound?
A: > 100 µM

Q: What about the TGI (SF-539 CNS) of the same compound?
A: > 100 µM

Q: What about the TGI (UACC-257 melanoma) of the same compound?
A: > 100 µM

Q: And the TGI (HCT-15 colon)?
A: > 100 µM

Q: And the TGI (A549 NSCLC)?
A: > 100 µM

Q: And the TGI (K-562 leukemia)?
A: > 100 µM

Q: And the TGI (SN12C renal)?
A: > 100 µM

Q: What about the TGI (HL-60(TB) leukemia) of the same compound?
A: > 100 µM

Q: And the TGI (NCI-H460 lung)?
A: > 100 µM

Q: What about the TGI (CAKI-1 renal) of the same compound?
A: > 100 µM

Q: What about the TGI (RPMI-8226 leukemia) of the same compound?
A: > 100 µM

Q: What about the TGI (HOP-62 NSCLC) of the same compound?
A: > 100 µM

Q: And the TGI (SK-OV-3 ovarian)?
A: > 100 µM

Q: What about the TGI (SNB-75 CNS) of the same compound?
A: > 100 µM

Q: What about the TGI (TK-10 renal) of the same compound?
A: > 100 µM

Q: And the TGI (UACC-62 melanoma)?
A: > 100 µM

Q: What about the TGI (HOP-18 NSCLC) of the same compound?
A: > 100 µM

Q: And the TGI (RXF 393 renal)?
A: > 100 µM

Q: What about the TGI (EKVX NSCLC) of the same compound?
A: > 100 µM

Q: And the TGI (MOLT-4 leukemia)?
A: > 100 µM

Q: What about the TGI (DLD-1 colon) of the same compound?
A: > 100 µM

Q: And the TGI (MALME-3M melanoma)?
A: > 100 µM

Q: What about the TGI (SK-MEL-2 melanoma) of the same compound?
A: > 100 µM

Q: What about the TGI (SF-295 CNS) of the same compound?
A: > 100 µM

Q: What about the TGI (OVCAR-8 ovarian) of the same compound?
A: > 100 µM

Q: And the TGI (M14 melanoma)?
A: > 100 µM

Q: And the TGI (SK-MEL-28 melanoma)?
A: > 100 µM

Q: And the TGI (IGROV1 ovarian)?
A: > 100 µM

Q: And the TGI (UO-31 renal)?
A: > 100 µM

Q: And the TGI (DMS 114 small cell lung)?
A: > 100 µM

Q: And the TGI (NCI-H23 lung)?
A: > 100 µM

Q: And the TGI (LOX IMVI melanoma)?
A: > 100 µM

Q: And the TGI (OVCAR-5 ovarian)?
A: > 100 µM

Q: And the TGI (OVCAR-3 ovarian)?
A: > 100 µM

Q: What about the TGI (ACHN renal) of the same compound?
A: > 100 µM

Q: And the TGI (NCI-H522 lung)?
A: > 100 µM

Q: What about the TGI (COLO 205 colon) of the same compound?
A: > 100 µM

Q: And the TGI (OVCAR-4 ovarian)?
A: > 100 µM

Q: And the TGI (KM12 colon)?
A: > 100 µM

Q: And the TGI (HOP-92 NSCLC)?
A: > 100 µM

Q: What about the TGI (U251 CNS) of the same compound?
A: > 100 µM

Q: What about the TGI (HCC-2998 colon) of the same compound?
A: > 100 µM

Q: And the TGI (SF-268 CNS)?
A: > 100 µM

Q: And the TGI (LXFL 529 NSCLC)?
A: > 100 µM

Q: What about the TGI (KM20L2 colon) of the same compound?
A: > 100 µM

Q: What about the TGI (SK-MEL-5 melanoma) of the same compound?
A: > 100 µM

Q: And the TGI (786-0 renal)?
A: > 100 µM

Q: What does the source list for `NS(=O)(=O)c1cc2c(cc1Cl)NC(/C(=N/NC(=O)c1ccncc1)C1C(=O)NC(=O)NC1=O)=NS2(=O)=O`?
A: TGI (CCRF-CEM leukemia): > 100 µM; TGI (RXF-631 renal): > 100 µM; TGI (A498 renal): > 100 µM; TGI (SW-620 colon): > 100 µM; TGI (M19-MEL melanoma): > 100 µM; TGI (DMS 273 small cell lung): > 100 µM; TGI (SF-539 CNS): > 100 µM; TGI (UACC-257 melanoma): > 100 µM; TGI (HCT-15 colon): > 100 µM; TGI (A549 NSCLC): > 100 µM; TGI (K-562 leukemia): > 100 µM; TGI (HL-60(TB) leukemia): > 100 µM; TGI (NCI-H460 lung): > 100 µM; TGI (CAKI-1 renal): > 100 µM; TGI (RPMI-8226 leukemia): > 100 µM; TGI (HOP-62 NSCLC): > 100 µM; TGI (SK-OV-3 ovarian): > 100 µM; TGI (TK-10 renal): > 100 µM; TGI (UACC-62 melanoma): > 100 µM; TGI (EKVX NSCLC): > 100 µM; TGI (HCT-116 colon): > 100 µM; TGI (MOLT-4 leukemia): > 100 µM; TGI (DLD-1 colon): > 100 µM; TGI (MALME-3M melanoma): > 100 µM; TGI (SK-MEL-2 melanoma): > 100 µM; TGI (SNB-78 CNS): > 100 µM; TGI (SNB-19 CNS): > 100 µM; TGI (SF-295 CNS): > 100 µM; TGI (OVCAR-8 ovarian): > 100 µM; TGI (M14 melanoma): > 100 µM; TGI (IGROV1 ovarian): > 100 µM; TGI (UO-31 renal): > 100 µM; TGI (DMS 114 small cell lung): > 100 µM; TGI (LOX IMVI melanoma): > 100 µM; TGI (OVCAR-5 ovarian): > 100 µM; TGI (OVCAR-3 ovarian): > 100 µM; TGI (ACHN renal): > 100 µM; TGI (COLO 205 colon): > 100 µM; TGI (OVCAR-4 ovarian): > 100 µM; TGI (KM12 colon): > 100 µM; TGI (HOP-92 NSCLC): > 100 µM; TGI (U251 CNS): > 100 µM; TGI (HCC-2998 colon): > 100 µM; TGI (LXFL 529 NSCLC): > 100 µM; TGI (KM20L2 colon): > 100 µM; TGI (SK-MEL-5 melanoma): > 100 µM; TGI (786-0 renal): > 100 µM
